Source: paper PMC5372685, “Passage through the Ocular Barriers and Beneficial Effects in Retinal Ischemia of Topical Application of PACAP1-38 in Rodents” (International Journal of Molecular Sciences, 2017)
Ends that are not written are not given here.

What was measured:
[1] = set-up: species or system mice; settings: mouse, in vivo
Procedure: Mice were anesthetized with urethane and administered PACAP1-38 as an eye drop (1 × 10^6 cpm/eye in benzalkonium-chloride). Serum, whole brain, and eyes were collected 10 or 60 min after the eye drops were administered. The whole brain and eyes were washed in ice-cold PBS. Blood was allowed to clot, centrifuged at 5400× g for 10 min, and 50 μL of the serum obtained was added to 200 μL of 1% BSA in Lactated Ringers' (LR) solution. This mixture was added to 250 μL of 30% trichloroacetic acid, vortexed, and centrifuged for 10 min at 5400× g. Brains and eyes were homogenized separately in 0.5 mL of 1% BSA-LR with a bead beater for 30 s at 4800 rpm × 2 on ice. Samples were transferred to a microfuge tube and centrifuged at 10,000× g for 20 min and a portion of the resulting supernatant added to an equal volume of 30% trichloroacetic acid, vortexed, and centrifuged at 5400× g for 10 min. Resulting supernatant (S) and precipitate (P) from the serum, whole brain, and eyes were counted separately and the percent of radioactivity which could be precipitated with acid (% […]) was calculated using: % […] = 100(P)/(S + P). To correct for any degradation that might have occurred during the processing for acid precipitation, we added 125I-PACAP1-38 to non-radioactive arterial whole blood, whole brain, and eyes, and processed as above. Biological samples were corrected for degradation during processing by dividing their values by the processing control values.

[2] = test system: LH surge; settings: intracerebroventricular administration; cited from earlier work
Excerpt: (§1) Our present study, together with the previous study on PACAP1-27, highlights the potential therapeutic use of PACAP in the form of eye drops to treat retinal diseases. The novelty of our present results is that PACAP1-38, the most commonly occurring form of the peptide, exerts a retinoprotective effect similarly to PACAP1-27. Although most actions of PACAP1-27 and PACAP1-38 are similar or the same, several differences are also known. In most studies, PACAP1-27 binds to the receptors with less affinity, leading to less well-pronounced effects at the same concentration as PACAP1-38 [6, 36]. T ...

[3] = test system: dipeptidyl-peptidase; settings: cited from earlier work
Excerpt: as §1

[4] = test system: retinoblastoma cells; settings: high concentrations; cited from earlier work
Excerpt: as §1

[5] = test system: monosodium glutamate-induced excitotoxic lesions of the retina; settings: intravitreal injection; cited from earlier work
Excerpt: (§2) VIP, the peptide with the closest structural similarity ...

[6] = test system: ocular barriers and retinal lesion; settings: eye drops dissolved in benzalkonium-chloride; cited from earlier work
Excerpt: The present results are in accordance with our recent observations with PACAP1-27 eye drops.

[7] = test system: ischemic retinal lesion; settings: cited from earlier work
Excerpt: as §2

[8] = test system: retinal layers in BCCAO-induced retinal hypoperfusion; experiment: Retina morphology and morphometry after permanent bilateral common carotid artery occlusion (BCCAO); format: in vivo, Wistar rats
Procedure: (§3) Wistar rats (n = 20:n = 12 for histological analysis, n = 8 for immunohistochemical analysis) weighing 250–300 g were subjected to permanent ligation of both common carotid arteries. The animals were bred and kept in the Animal Facility of the University of Pecs, Medical School. They were fed and watered ad libitum, under light/dark cycles of 12/12 h. All procedures were in accordance with institutional guidelines (ethical permission No: BA02/2000-31/2011, University of Pecs). Under isoflurane anesthesia, both common carotid arteries were exposed through a midline cervical incision and ligated with a 3-0 filament. Directly after the operation within 1 min, the right eye was treated with PACAP1-38 eye drops (1 µg/drop) (PACAP was synthesized at the Department of Medical Chemistry, University of Szeged, Szeged, Hungary). […] The left eye served as a control, treated only with the vehicle. A group of animals served as the sham-operated group that underwent anesthesia and all steps of the surgical procedure except ligation of the carotid arteries. Rats were treated twice a day with one drop, for 5 consecutive days.
Rats (n = 3 sham, n = 3 sham + PACAP1-38, n = 9 BCCAO, n = 9 BCCAO + PACAP1-38 retinas) were sacrificed with an overdose of anesthetic 2 weeks after BCCAO and eyes were processed for histological analysis. Histological analysis was performed as described previously. Briefly, removed retinas were dissected in phosphate buffered saline (PBS), fixed in 4% paraformaldehyde dissolved in 0.1 M phosphate buffer (PB), embedded in Durcupan ACM resin, and two-µm-thick sections were stained with toluidine blue (Sigma, Budapest, Hungary). Four tissue blocks obtained from at least three rats were prepared and central retinal areas within 1 mm from the optic nerve were used (n = 5 measurements from one tissue block). The following parameters were measured on digital photographs taken with a Nikon Eclipse camera using the Spot program: cross-section from the outer limiting membrane (OLM) to the inner limiting membrane (ILM), and width of all retinal layers (outer nuclear layer-ONL, outer plexiform layer-OPL, inner nuclear layer-INL, inner plexiform layer-IPL). We also counted the number of cells in the ganglion cell layer (GCL). Results are presented as mean ± SEM. Statistical comparisons were made using the two-way ANOVA followed by Fischer’s post hoc analysis.

[9] = test system: Müller glial cells (GFAP); experiment: GFAP immunohistochemistry of Müller glial cell activation after BCCAO; format: in vivo, Wistar rats; settings: BCCAO rats, eye drops 1 µg/drop twice a day for 5 days, 2 weeks after ischemia, n = 4; p < 0.05
Procedure: as §3, with “Rats were treated twice a day with one drop, for 5 consecutive days.” left out
For immunohistochemical analysis, 2 weeks after the induction of ischemia, animals (n = 4 sham, n = 4 sham + PACAP1-38 and n = 4 BCCAO; n = 4 BCCAO + PACAP1-38 retinas) were sacrificed with 120 mg/kg pentobarbital (Nembutal, Sanofi-Phylaxia, Budapest, Hungary). […] Digital photographs were taken with a Nikon Eclipse Ci fluorescence microscope. […]

[10] = mouse, in vivo

Substance: 125I-PACAP1-38: PACAP1-38 labeled with 125I using the lactoperoxidase method
- Percentage of acid precipitation, Eye, 10 min [1]: 52.73 ± 2.35%
- Percentage of acid precipitation, Eye, 60 min [1]: 48.24 ± 3.39%
- Percentage of acid precipitation, Serum, 10 min [1]: 25.57 ± 25.57%
- Percentage of acid precipitation, Serum, 60 min [1]: 0 ± 0%
- Percentage of acid precipitation, Whole Brain, 10 min [1]: 104.71 ± 17.72%
- Percentage of acid precipitation, Whole Brain, 60 min [1]: 75.09 ± 41.13%
- degradation in the serum after ocular administration [1]: almost completely degraded by 5 min

Substance: PACAP1-27: the shorter biologically active form of PACAP [reference compound]
- effect on LH surge [2]: opposite reaction
- metabolic stability in the serum against dipeptidyl-peptidase [3]: more stable due to the resistance against dipeptidyl-peptidase reaction
- viability of retinoblastoma cells [4]: negligible effects
- retinoprotection in monosodium glutamate-induced excitotoxic lesions [5]: same degree of retinoprotection
- passage through ocular barriers and effect on retinal lesion [6]: passes through the mouse ocular barriers from the corneal surface to the retina, and ameliorates the retinal lesion

Substance: PACAP6-27: PACAP receptor antagonist (FTDSYSRYRKQMAVKKYLAAVL; ends and bridges not checked; UniProt P18509 137-158, looked up, fragment)
- retinoprotection in monosodium glutamate-induced excitotoxic lesions [5]: further increased the excitotoxic damage

Substance: PACAP6-38: PACAP receptor antagonist (FTDSYSRYRKQMAVKKYLAAVLGKRYKQRVKNK; ends and bridges not checked; UniProt P18509 137-169, looked up, fragment)
- retinoprotection in monosodium glutamate-induced excitotoxic lesions [5]: further increased the excitotoxic damage

Substance: VIP: the peptide with the closest structural similarity to PACAP
- concentration needed for the same degree of protection as PACAP in ischemic retinopathy [7]: ten times higher

Substance: glucagon
- protective effects in ischemic retinal lesion [7]: do not exert protective effects

Substance: pituitary adenylate cyclase activating polypeptide [PACAP1-38]
- OLM–ILM (outer limiting membrane–inner limiting membrane) distance, reduction compared to sham controls ([8]; BCCAO rats, eye drops 1 µg/drop in 0.005% benzalkonium-chloride, twice a day for 5 days, 2 weeks after ligation, BCCAO vehicle eye 49.7%, p < 0.001, n = 9 retinas): 40.6%
- outer nuclear layer (ONL) thickness, reduction ([8]; as E1, BCCAO vehicle eye 36.5%, no statistically significant attenuation): 37.7%
- inner nuclear layer (INL) thickness, reduction ([8]; as E1, BCCAO vehicle eye 38.5%, p < 0.001): 30.5%
- number of cells in the ganglion cell layer (GCL), decrease ([8]; as E1, BCCAO vehicle eye 52.4%, p < 0.05): 25.9%
- outer plexiform layer (OPL) thickness, reduction ([8]; as E1, BCCAO vehicle eye 53.0%, no statistically significant attenuation): 48.2%
- inner plexiform layer (IPL) thickness, reduction ([8]; as E1, BCCAO vehicle eye 64.8%, p < 0.05): 38.2%
- effect on retinal layers in sham animals ([8]; sham-operated rats, eye drops 1 µg/drop in benzalkonium, n = 3): did not result in changes in any of the retinal layers
- GFAP upregulation in Müller glial cells [9]: attenuated the GFAP upregulation
- Percentage of acid precipitation, Whole Brain, 10 min [1]: 104.71 ± 17.72%
- Percentage of acid precipitation, Whole Brain, 60 min [1]: 75.09 ± 41.13%
- intact peptide in the eye [1]: about 50%
- clearance into the blood stream (serum) [10]: increased clearance into the blood stream after 120 min
- detection of radioactivity after ocular application [10]: present in the eye, the brain, and the serum five minutes after application
- level in the whole brain, time course [10]: detected after 5 min in the whole brain (Figure 4D) and levels remained stable throughout the observation time
- transport across the cornea, time course [10]: increasing transport across the cornea over the time course of the study
- uptake in the retina, time course [10]: increased to 30 min and plateaued
- effect on LH surge [2]: inhibition of the LH surge
- metabolic stability in the serum against dipeptidyl-peptidase [3]: rapidly degraded in the serum by dipeptidyl-peptidase
- viability of retinoblastoma cells [4]: reduced viability
- retinoprotection in monosodium glutamate-induced excitotoxic lesions [5]: same degree of retinoprotection

Substance: pituitary adenylate cyclase activating polypeptide [PACAP]
- serum and brain levels in comparison to ocular levels [10]: negligible in comparison to ocular levels

Substance: secretin
- protective effects in ischemic retinal lesion [7]: do not exert protective effects
